Assay: heat capacity at constant pressure per volume; xn = mol fraction of the nth substance listed
Details: 101 kPa, Liquid, DSC, x2 = 0.713

CCCCCCCCCCCCCCCCCC [octadecane] + N#Cc1ccccc1
Details	heat capacity [J/K/m3]
311.31 K	1755300
311.34 K	1755200
311.37 K	1751900
311.39 K	1755200
311.42 K	1754200
311.45 K	1754700
311.48 K	1751100
311.51 K	1751000
311.54 K	1753000
311.56 K	1754300
311.59 K	1755100
311.62 K	1752800
311.65 K	1748600
311.68 K	1753400
311.7 K	1751800
311.73 K	1751000
311.76 K	1752000
311.79 K	1748500
311.82 K	1747200
311.85 K	1749600
311.87 K	1749800
311.9 K	1751600
311.93 K	1750300
311.96 K	1749700
311.99 K	1747400
312.01 K	1746900
312.04 K	1752800
312.07 K	1750900
312.1 K	1745700
312.13 K	1749200
312.15 K	1747500
312.18 K	1746000
312.21 K	1746700
312.24 K	1746500
312.27 K	1747800
312.3 K	1746300
312.32 K	1744700
312.35 K	1746400
312.38 K	1744700
312.41 K	1744900
312.44 K	1743500
312.46 K	1743700
312.49 K	1747600
312.52 K	1745100
312.55 K	1746800
312.58 K	1745400
312.6 K	1744400
312.63 K	1744300
312.66 K	1743700
312.69 K	1745000
312.72 K	1743800
312.75 K	1744000
312.77 K	1743700
312.8 K	1741400
312.83 K	1742500
312.86 K	1743700
312.88 K	1745000
312.91 K	1746300
312.94 K	1744500
312.97 K	1744100
313 K	1743500
313.03 K	1742300
313.05 K	1742800
313.08 K	1741900
313.11 K	1742400
313.14 K	1742800
313.17 K	1739000
313.19 K	1743700
313.22 K	1740000
313.25 K	1739100
313.28 K	1738800
313.31 K	1739500
313.33 K	1740400
313.36 K	1741400
313.39 K	1740700
313.42 K	1739700
313.45 K	1740900
313.48 K	1742600
313.5 K	1740800
313.53 K	1739000
313.56 K	1737700
313.59 K	1739600
313.62 K	1740700
313.64 K	1741100
313.67 K	1740500
313.7 K	1740400
313.73 K	1741200
313.76 K	1739900
313.79 K	1739100
313.81 K	1739300
313.84 K	1739200
313.87 K	1738900
313.9 K	1738100
313.93 K	1738700
313.95 K	1735100
313.98 K	1738800
314.01 K	1737700
314.04 K	1736700
314.07 K	1735400
314.09 K	1737000
314.12 K	1736800
314.15 K	1737300
314.18 K	1733500
314.21 K	1737800
314.24 K	1735200
314.26 K	1736900
314.29 K	1735200
314.32 K	1736400
314.35 K	1737400
314.38 K	1736600
314.4 K	1738700
314.43 K	1736600
314.46 K	1737000
314.49 K	1735500
314.52 K	1735300
314.54 K	1735400
314.57 K	1735300
314.6 K	1735500
314.63 K	1734500
314.66 K	1737100
314.68 K	1735100
314.71 K	1733900
314.74 K	1734500
314.77 K	1733900
314.8 K	1737400
314.82 K	1736200
314.85 K	1735600
314.88 K	1735100
314.91 K	1734300
314.94 K	1734100
314.96 K	1733300
314.99 K	1735100
315.02 K	1735000
315.05 K	1735200
315.08 K	1732600
315.2 K	1734500
315.38 K	1734200
315.57 K	1733800
315.76 K	1733400
315.95 K	1733200
316.14 K	1733100
316.33 K	1732700
316.52 K	1732000
316.71 K	1731600
316.9 K	1731300
317.09 K	1731000
317.28 K	1730800
317.47 K	1730300
317.66 K	1730100
317.85 K	1730000
318.03 K	1729900
318.22 K	1729800
318.41 K	1729400
318.6 K	1729300
318.79 K	1729200
318.98 K	1729000
319.17 K	1728800
319.36 K	1728600
319.55 K	1728600
319.74 K	1728300
319.93 K	1728200
320.12 K	1728000
320.31 K	1728000
320.5 K	1728000
320.68 K	1728000
320.87 K	1727900
321.06 K	1727600
321.25 K	1727500
321.44 K	1727400
321.63 K	1727200
321.82 K	1727200
322.01 K	1727300
322.2 K	1727200
322.39 K	1726900
322.58 K	1726600
322.76 K	1726900
322.95 K	1726900
323.14 K	1726800
323.33 K	1726700
323.52 K	1726500
323.71 K	1726800
323.9 K	1726900
324.09 K	1726700
324.28 K	1726700
324.47 K	1726600
324.66 K	1726600
324.85 K	1726700
325.04 K	1726500
325.23 K	1726500
325.41 K	1726500
325.6 K	1726500
325.79 K	1726500
325.98 K	1726300
326.17 K	1726400
326.36 K	1726600
326.55 K	1726500
326.74 K	1726700
326.93 K	1726700
327.12 K	1726400
327.31 K	1726600
327.5 K	1726500
327.69 K	1726700
327.87 K	1726500
328.06 K	1726500
328.25 K	1726700
328.44 K	1726900
328.63 K	1726600
328.82 K	1726700
329.01 K	1726800
329.2 K	1726900
329.39 K	1726800
329.58 K	1726700
329.77 K	1726700
329.95 K	1726800
330.14 K	1726900
330.33 K	1726900
330.52 K	1726800
330.71 K	1727000
330.9 K	1727000
331.09 K	1727200
331.28 K	1727300
331.47 K	1727100
331.66 K	1727200
331.85 K	1727200
332.04 K	1727200
332.23 K	1727200
332.42 K	1727100
332.61 K	1727100
332.79 K	1727400
332.98 K	1727300
333.17 K	1727400
333.36 K	1727300
333.55 K	1727600
333.74 K	1728000
333.93 K	1727700
334.12 K	1727800
334.31 K	1727700
334.5 K	1727900
334.69 K	1728100
334.88 K	1728200
335.06 K	1728100
335.25 K	1728100
335.44 K	1728300
335.63 K	1728300
335.82 K	1728600
336.01 K	1729000
336.2 K	1729000
336.39 K	1728800
336.58 K	1729000
336.77 K	1729100
336.96 K	1729000
337.15 K	1729000
337.34 K	1729200
337.52 K	1729100
337.71 K	1729200
337.9 K	1729200
338.09 K	1729300
338.28 K	1729700
338.47 K	1729900
338.66 K	1729900
338.85 K	1729600
339.04 K	1730200
339.23 K	1730200
339.42 K	1730600
339.61 K	1730700
339.8 K	1730900
339.99 K	1730600
340.17 K	1730800
340.36 K	1730700
340.55 K	1730900
340.74 K	1731100
340.93 K	1730900
341.12 K	1730900
341.31 K	1731200
341.5 K	1731200

— the NIST ThermoML archive (doi:10.1016/j.jct.2012.12.001)
